Laboratory results reported in patent publication US10538521B2, “Pyrimidine derivative having antimalarial activity” (CARNA BIOSCIENCES, INC., priority 2016, dated 2020).

Key:
[1] = test system: K1 strain, a drug resistant strain of Plasmodium falciparum; test: In vitro antimalarial assay (p-LDH, Malstat), K1 strain; format: cell-based; conditions: P. falciparum K1 (drug resistant), 72 h culture, p-LDH readout, read-out: Antimalarial activity (IC50 value), Strain K1
Outline: (§1)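 P. falciparum FCR3 and K1 cultured in human erythrocytes (RPMI 1640, 10% human plasma; 2% hematocrit, 0.5 or 1% parasitaemia) with compound at 12.5 to 0.0001 μM final for 72 h at 37° C (3% O2-4% CO2-93% N2). Growth read as p-LDH activity (Malstat/NBT-PES, A655 nm) after freeze-thaw; IC50 from concentration-response curve.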

[2] = test system: FCR3 strain, a drug sensitive strain of Plasmodium falciparum; test: In vitro antimalarial assay (p-LDH, Malstat), FCR3 strain; format: cell-based; conditions: P. falciparum FCR3 (drug sensitive), 72 h culture, p-LDH readout, read-out: Antimalarial activity (IC50 value), Strain FCR3
Outline: as §1

SMILES	IC50 [1] [nM]	IC50 [2] [nM]
Cc1cc(Cl)cc(Nc2nc(Nc3ccn4ccnc4c3)cc(N3CCCCC3)n2)n1 [Example 205, N2-(4-chloro-6-methylpyridin-2-yl)-N4-(imidazo[1,2-a]pyridin-7-yl)-6-(piperidin-1-yl) pyrimidine-2,4-diamine]	100 to 1000	100 to 1000
CC(C)c1ccnc(Nc2nc(Nc3ccn4ccnc4c3)cc(N3CCOCC3)n2)c1 [Example 70, N4-(imidazo[1,2-a]pyridin-7-yl)-N2-(4-isopropylpyridin-2-yl)-6-morpholinopyrimidine-2,4-diamine]	< 100	< 100
Cc1cc(C)nc(Nc2nc(Nc3ccn4ccnc4c3)cc(N3CCC(N4CCOCC4)CC3)n2)c1 [Example 132, N2-(4,6-dimethylpyridin-2-yl)-N4-(imidazo[1,2-a]pyridin-7-yl)-6-(4-morpholinopiperidin-1-yl)pyrimidine-2,4-diamine]	< 100	< 100
CN(C)CCOc1cccc(Nc2nc(Nc3ccn4ccnc4c3)cc(N3CCCC3)n2)n1 [Example 155, N2-{6-[2-(dimethylamino)ethoxy]pyridin-2-yl}-N4-(imidazo[1,2-a]pyridin-7-yl)-6-(pyrrolidin-1-yl)pyrimidine-2,4-diamine]	< 100	< 100
Fc1ccc(Nc2nc(Nc3ccn4ccnc4c3)cc(N3CCOCC3)n2)nc1 [Example 13, N2-(5-Fluoropyridin-2-yl)-N4-(imidazo[1,2-a]pyridin-7-yl)-6-morpholinopyrimidine-2,4-diamine]	100 to 1000	< 100
CC(C)(C)c1cccc(Nc2nc(Nc3ccn4ccnc4c3)cc(N3CCOCC3)n2)n1 [Example 124, N2-(6-(tert-butyl)pyridin-2-yl)-N4-(imidazo[1,2-a]pyridin-7-yl)-6-morpholinopyrimidine-2,4-diamine]	100 to 1000	100 to 1000
Cc1ccc(Nc2nc(Nc3ccn4ccnc4c3)cc(N3CCCCC3)n2)nc1 [Example 26, N4-(imidazo[1,2-a]pyridin-7-yl)-N2-(5-methylpyridin-2-yl)-6-(piperidin-1-yl)pyrimidine-2,4-diamine]	< 100	< 100
CCOc1cc(Nc2ccn3ccnc3c2)nc(Nc2cc(C)ccn2)n1 [Example 36, 6-ethoxy-N4-(imidazo[1,2-a]pyridin-7-yl)-N2-(4-methylpyridin-2-yl) pyrimidine-2,4-diamine]	1000 to 10000	1000 to 10000
CCc1cccc(Nc2nc(Nc3ccn4ccnc4c3)cc(N3CCOCC3)n2)n1 [Example 107, N2-(6-ethylpyridin-2-yl)-N4-(imidazo[1,2-a]pyridin-7-yl)-6-morpholinopyrimidine-2,4-diamine]	< 100	< 100
c1cn2ccc(Nc3cc(N4CCOCC4)nc(Nc4ccc(OC5CCOCC5)nc4)n3)cc2n1 [Example 82, N4-(imidazo[1,2-a]pyridin-7-yl)-6-morpholino-N2-(6-((tetrahydro-2H-pyran-4-yl)oxy)pyridin-3-yl)pyrimidine-2,4-diamine]	100 to 1000	100 to 1000
CCc1ccnc(Nc2nc(Nc3ccn4ccnc4c3)cc(N3CCOCCOCCOCC3)n2)c1 [Example 120, N2-(4-ethylpyridin-2-yl)-N4-(imidazo[1,2-a]pyridin-7-yl)-6-(1,4,7-trioxa-10-azacyclododecan-10-yl)pyrimidine-2,4-diamine]	1000 to 10000	1000 to 10000
CCOc1cccc(Nc2nc(Nc3ccn4ccnc4c3)cc(N3CCCC3)n2)n1 [Example 150, N2-(6-ethoxypyridin-2-yl)-N4-(imidazo[1,2-a]pyridin-7-yl)-6-(pyrrolidin-1-yl)pyrimidine-2,4-diamine]	100 to 1000	< 100
OCCOc1cccc(Nc2nc(Nc3ccn4ccnc4c3)cc(N3CCCC3)n2)n1 [Example 157, 2-[(6-{[4-(imidazo[1,2-a]pyridin-7-ylamino)-6-(pyrrolidin-1-yl)pyrimidin-2-yl]amino}pyridin-2-yl)oxy]ethanol]	< 100	< 100
CC(C)Oc1ccc(Nc2nc(Nc3ccn4ccnc4c3)cc(N3CCCCC3)n2)cn1 [Example 55, N4-(Imidazo[1,2-a]pyridin-7-yl)-N2-(6-isopropoxypyridin-3-yl)-6-(piperidin-1-yl) pyrimidine-2,4-diamine]	1000 to 10000	100 to 1000
Cc1cc(C)nc(Nc2nc(Nc3ccccc3)cc(Nc3ccn4ccnc4c3)n2)c1 [Example 195, N2-(4,6-dimethylpyridin-2-yl)-N4-(imidazo[1,2-a]pyridin-7-yl)-N6-phenylpyrimidine-2,4,6-triamine]	100 to 1000	100 to 1000
CCc1ccnc(Nc2nc(Nc3ccn4ccnc4c3)cc(N3CCC(N4CCCC4)CC3)n2)c1 [Example 127, N2-(4-ethylpyridin-2-yl)-N4-(imidazo[1,2-a]pyridin-7-yl)-6-(4-(pyrrolidin-1-yl)piperidin-1-yl)pyrimidine-2,4-diamine]	< 100	< 100

SMILES	IC50 [1] [nM]	IC50 [2] [nM]
COCCOc1cccc(Nc2nc(Nc3ccn4ccnc4c3)cc(N3CCCC3)n2)n1 [Example 152, N4-(imidazo[1,2-a]pyridin-7-yl)-N2-[6-(2-methoxyethoxy)pyridin-2-yl]-6-(pyrrolidin-1-yl)pyrimidine-2,4-diamine]	< 100	< 100
Cc1cc(C)nc(Nc2nc(Nc3ccn4ccnc4c3)cc(N3CCOCC3)n2)c1 [Example 2, N2-(4,6-dimethylpyridin-2-yl)-N4-(imidazo[1,2-a]pyridin-7-yl)-6-morpholinopyrimidine-2,4-diamine]	< 100	< 100
COc1ccnc(Nc2nc(Nc3ccn4ccnc4c3)cc(N3CCC(C)(C)C3)n2)c1 [Example 209, 6-(3,3-dimethylpyrrolidin-1-yl)-N4-(imidazo[1,2-a]pyridin-7-yl)-N2-(4-methoxypyridin-2-yl) pyrimidine-2,4-diamine]	100 to 1000	100 to 1000
CCOc1ccc(Nc2nc(Nc3ccn4ccnc4c3)cc(N3CCCCC3)n2)cn1 [Example 51, N2-(6-ethoxypyridin-3-yl)-N4-(imidazo[1,2-a]pyridin-7-yl)-6-(piperidin-1-yl)pyrimidine-2,4-diamine]	1000 to 10000	100 to 1000
CCCCc1cccc(Nc2nc(Nc3ccn4ccnc4c3)cc(N3C[C@H]4CCC[C@H]4C3)n2)n1 [Example 179, N2-(6-butylpyridin-2-yl)-6-((3aR,6aS)-hexahydrocyclopenta[c]pyrrol-2(1H)-yl)-N4-(imidazo [1,2-a]pyridin-7-yl)pyrimidine-2,4-diamine]	100 to 1000	100 to 1000
CCc1ccnc(Nc2nc(Nc3ccn4ccnc4c3)cc(N3CC(O)C3)n2)c1 [Example 115, 1-(2-((4-ethylpyridin-2-yl)amino)-6-(imidazo[1,2-a]pyridin-7-ylamino)pyrimidin-4-yl)azetidin-3-ol]	< 100	< 100
Cc1ccc(Nc2nc(N)cc(Nc3ccn4ccnc4c3)n2)cn1 [Example 85, N4-(imidazo[1,2-a]pyridin-7-yl)-N2-(6-methylpyridin-3-yl) pyrimidine-2,4,6-triamine]	1000 to 10000	1000 to 10000
COc1ccncc1Nc1nc(Nc2ccn3ccnc3c2)cc(N2CCOCC2)n1 [Example 23, N4-(Imidazo[1,2-a]pyridin-7-yl)-N2-(4-methoxypyridin-3-yl)-6-morpholinopyrimidine-2,4-diamine]	1000 to 10000	100 to 1000
Cc1ccc(Nc2nc(Nc3ccn4ccnc4c3)cc(N3CCN(C)CC3)n2)nc1 [Example 27, N4-(imidazo[1,2-a]pyridin-7-yl)-6-(4-methylpiperazin-1-yl)-N 2-(5-methylpyridin-2-yl) pyrimidine-2,4-diamine]	100 to 1000	1000 to 10000
COCCOc1ccc(Nc2nc(Nc3ccn4ccnc4c3)cc(N3CCOCC3)n2)cn1 [Example 66, N4-(imidazo[1,2-a]pyridin-7-yl)-N2-(6-(2-methoxyethoxy)-pyridin-3-yl)-6-morpholino-pyrimidine-2,4-diamine]	100 to 1000	100 to 1000
CC(C)Oc1cccc(Nc2nc(Nc3ccn4ccnc4c3)cc(N3CCCC3)n2)n1 [Example 153, N4-(imidazo[1,2-a]pyridin-7-yl)-N2-(6-isopropoxypyridin-2-yl)-6-(pyrrolidin-1-yl)pyrimidine-2,4-diamine]	< 100	< 100
Cc1cc(C)nc(Nc2nc(Nc3ccn4ccnc4c3)cc(-n3ccnc3)n2)c1 [Example 46]	100 to 1000	< 100
FC(F)Oc1ccc(Nc2nc(Nc3ccn4ccnc4c3)cc(N3CCOCC3)n2)cn1 [Example 78, N2-(6-(difluoromethoxy)pyridin-3-yl)-N4-(imidazo[1,2-a]pyridin-7-yl)-6-morpholinopyrimidine-2,4-diamine]	100 to 1000	< 100
CCc1ccnc(Nc2nc(Nc3ccn4ccnc4c3)cc(N3CCC(C)(C)CC3)n2)c1 [Example 99, 6-(4,4-dimethylpiperidin-1-yl)-N2-(4-ethylpyridin-2-yl)-N4-(imidazo[1,2-a]pyridin-7-yl)pyrimidine-2,4-diamine]	100 to 1000	100 to 1000
COc1cc(Nc2ccn3ccnc3c2)nc(Nc2cc(C)cc(C)n2)n1 [Example 86, N2-(4,6-dimethylpyridin-2-yl)-N4-(imidazo[1,2-a]pyridin-7-yl)-6-methoxypyrimidine-2,4-diamine]	100 to 1000	100 to 1000
Cc1cc(C2CC2)cc(Nc2nc(Nc3ccn4ccnc4c3)cc(N3CCCCC3)n2)n1 [Example 141, N2-(4-cyclopropyl-6-methylpyridin-2-yl)-N4-(imidazo[1,2-a]pyridin-7-yl)-6-(piperidin-1-yl)pyrimidine-2,4-diamine]	100 to 1000	< 100
